Reference: the NIST ThermoML archive (doi:10.1016/j.tca.2006.05.010)

What was measured:
[1] = refractive index (Na D-line) (dimensionless); details: 101.33 kPa, Liquid, Standard Abbe refractometry
[2] = molar heat capacity at constant pressure; details: 101.33 kPa, Liquid, Small sample (50 mg) DSC
[3] = 101.33 kPa, Liquid, Vibrating tube method
[4] = excess molar enthalpy (molar enthalpy of mixing); xn = mol fraction of the nth substance listed; details: 308.15 K, 101 kPa, Liquid, Flow calorimetry
[5] = molar heat capacity at constant pressure; xn = mol fraction of the nth substance listed; details: 308.15 K, 101 kPa, Liquid, Small sample (50 mg) DSC

CCOCCOCC [1,2-diethoxyethane]
Details | mass density, [3] [kg/m3] | molar heat capacity at constant pressure, [2] [J/K/mol] | refractive index, [1]
288.15 K | – | 254.5 | –
293.15 K | – | 255.3 | –
298.15 K | 835.11 | 257.5 | 1.3897
303.15 K | – | 257.9 | –
308.15 K | 826.026 | 258.7 | 1.3853
313.15 K | – | 259.5 | –
318.15 K | – | 261.2 | –
323.15 K | – | 262.9 | –

CCOCCOCC [1,2-diethoxyethane] + C[S+](C)[O-]
Details | excess molar enthalpy [kcal/mol] | molar heat capacity at constant pressure [J/K/mol]
[4], x2 = 0.0765 | 0.0817 | –
[4], x2 = 0.1421 | 0.127 | –
[4], x2 = 0.199 | 0.155 | –
[4], x2 = 0.2488 | 0.172 | –
[4], x2 = 0.332 | 0.192 | –
[4], x2 = 0.3986 | 0.201 | –
[4], x2 = 0.4985 | 0.213 | –
[4], x2 = 0.5698 | 0.211 | –
[4], x2 = 0.6653 | 0.2 | –
[4], x2 = 0.7489 | 0.174 | –
[4], x2 = 0.799 | 0.152 | –
[4], x2 = 0.8564 | 0.12 | –
[4], x2 = 0.8883 | 0.0949 | –
[4], x2 = 0.9227 | 0.07 | –
[4], x2 = 0.9408 | 0.0586 | –
[4], x2 = 0.9598 | 0.0382 | –
[4], x2 = 0.9795 | 0.0198 | –
[5], x2 = 0.0627 | – | 252.8
[5], x2 = 0.1317 | – | 246
[5], x2 = 0.1895 | – | 240.7
[5], x2 = 0.35 | – | 225
[5], x2 = 0.4563 | – | 214.4
[5], x2 = 0.5642 | – | 203.2
[5], x2 = 0.635 | – | 195.8
[5], x2 = 0.6718 | – | 191.9
[5], x2 = 0.7514 | – | 183.1
[5], x2 = 0.8274 | – | 174.7
[5], x2 = 0.8881 | – | 167.7
[5], x2 = 0.941 | – | 161.6

COCCOC [1,2-dimethoxyethane]
Details | mass density, [3] [kg/m3] | molar heat capacity at constant pressure, [2] [J/K/mol] | refractive index, [1]
288.15 K | – | 188.7 | –
293.15 K | – | 189 | –
298.15 K | 861.9 | 191 | 1.3781
303.15 K | – | 192.2 | –
308.15 K | 851.28 | 193.4 | 1.3726
313.15 K | – | 194.5 | –
318.15 K | – | 195.8 | –
323.15 K | – | 196.9 | –

COCCOC [1,2-dimethoxyethane] + C[S+](C)[O-]
Details | excess molar enthalpy [kcal/mol] | molar heat capacity at constant pressure [J/K/mol]
[4], x2 = 0.0577 | 0.0184 | –
[4], x2 = 0.1092 | 0.0339 | –
[4], x2 = 0.1553 | 0.0461 | –
[4], x2 = 0.1969 | 0.0552 | –
[4], x2 = 0.2689 | 0.0681 | –
[4], x2 = 0.329 | 0.0779 | –
[4], x2 = 0.4238 | 0.0863 | –
[4], x2 = 0.495 | 0.0875 | –
[4], x2 = 0.5953 | 0.087 | –
[4], x2 = 0.6882 | 0.0808 | –
[4], x2 = 0.7463 | 0.0755 | –
[4], x2 = 0.8153 | 0.0633 | –
[4], x2 = 0.8547 | 0.055 | –
[4], x2 = 0.8982 | 0.0435 | –
[4], x2 = 0.9217 | 0.0339 | –
[4], x2 = 0.9464 | 0.0251 | –
[4], x2 = 0.9725 | 0.0136 | –
[5], x2 = 0.1017 | – | 188.6
[5], x2 = 0.1471 | – | 186.5
[5], x2 = 0.2718 | – | 180.8
[5], x2 = 0.3811 | – | 175.8
[5], x2 = 0.4923 | – | 170.8
[5], x2 = 0.5507 | – | 168.3
[5], x2 = 0.5831 | – | 166.9
[5], x2 = 0.677 | – | 163.1
[5], x2 = 0.7788 | – | 159.4
[5], x2 = 0.8414 | – | 157.6
[5], x2 = 0.9315 | – | 155.5
[5], x2 = 0.9626 | – | 155

C1COCO1 [1,3-dioxolane]
Details | mass density [kg/m3] | molar heat capacity at constant pressure [J/K/mol] | refractive index
[1], 298.15 K | – | – | 1.3983
[1], 308.15 K | – | – | 1.3934
[2], 288.15 K | – | 118.8 | –
[2], 293.15 K | – | 120.3 | –
[2], 298.15 K | – | 121.7 | –
[2], 303.15 K | – | 123.3 | –
[2], 308.15 K | – | 124.4 | –
[2], 313.15 K | – | 125.3 | –
[2], 318.15 K | – | 126.8 | –
[2], 323.15 K | – | 128.1 | –
[2], 328.15 K | – | 129.5 | –
[3], 298.15 K | 1058.79 | – | –
[3], 308.15 K | 1046.4 | – | –

C1COCO1 [1,3-dioxolane] + C[S+](C)[O-]
Details | excess molar enthalpy [kcal/mol] | molar heat capacity at constant pressure [J/K/mol]
[4], x2 = 0.0394 | 0.0146 | –
[4], x2 = 0.0757 | 0.0256 | –
[4], x2 = 0.1095 | 0.0335 | –
[4], x2 = 0.1408 | 0.0409 | –
[4], x2 = 0.1974 | 0.0478 | –
[4], x2 = 0.2469 | 0.054 | –
[4], x2 = 0.3297 | 0.0598 | –
[4], x2 = 0.3959 | 0.0629 | –
[4], x2 = 0.4959 | 0.0648 | –
[4], x2 = 0.5961 | 0.0631 | –
[4], x2 = 0.663 | 0.0609 | –
[4], x2 = 0.7469 | 0.0562 | –
[4], x2 = 0.7973 | 0.0519 | –
[4], x2 = 0.8551 | 0.0428 | –
[4], x2 = 0.8872 | 0.0354 | –
[4], x2 = 0.9219 | 0.0268 | –
[4], x2 = 0.9594 | 0.0155 | –
[5], x2 = 0.0532 | – | 125.2
[5], x2 = 0.1036 | – | 126.2
[5], x2 = 0.1897 | – | 128.2
[5], x2 = 0.3044 | – | 131.3
[5], x2 = 0.3922 | – | 133.9
[5], x2 = 0.5058 | – | 137.3
[5], x2 = 0.5455 | – | 138.5
[5], x2 = 0.5936 | – | 139.9
[5], x2 = 0.7053 | – | 143.4
[5], x2 = 0.781 | – | 145.9
[5], x2 = 0.9015 | – | 150.3
[5], x2 = 0.9431 | – | 152

C1COCCO1 [1,4-dioxane]
Details | mass density [kg/m3] | molar heat capacity at constant pressure [J/K/mol] | refractive index
[1], 298.15 K | – | – | 1.4202
[1], 308.15 K | – | – | 1.4154
[2], 288.15 K | – | 146.7 | –
[2], 293.15 K | – | 150 | –
[2], 298.15 K | – | 151 | –
[2], 303.15 K | – | 152.1 | –
[2], 308.15 K | – | 153.7 | –
[2], 313.15 K | – | 155.3 | –
[2], 318.15 K | – | 156.5 | –
[2], 323.15 K | – | 158.4 | –
[2], 328.15 K | – | 160.2 | –
[2], 333.15 K | – | 160.4 | –
[3], 298.15 K | 1027.96 | – | –
[3], 308.15 K | 1016.99 | – | –
